Measured values published in ChEMBL document CHEMBL1156896, “Synthesis and structure-activity relationships of a series of 3-aryl-4-isoxazolecarboxamides as a new class of TGR5 agonists” (Bioorg Med Chem Lett, 2010).

Key:
[1] = Permeability in artificial membrane assay; format: ADME, cell membranes; settings: PAMPA; read-out: permeability
in vitro = settings: dog, MDCK

**Q.** Which Papp [1] does the source give for `CCN(C(=O)c1c(-c2ccccc2Cl)noc1C)c1cccc(Cl)c1` here?
**A.** 31 ×10⁻⁶ cm/s

**Q.** What about the Papp (in vitro) of the same molecule?
**A.** 44.8 ×10⁻⁶ cm/s
